In PubChem BioAssay AID1963851 (Molecular Pharmacology Branch, DTP, NCI, 2024):

Tested on: 188146-221-R-J1-PDC complex spheroid viability
Experiment: Anticancer human tumor 188146-221-R-J1-PDC patient-derived colon adenocarcinoma cell line growth inhibition [POLQ]
Conditions: for IC50: curve of first compound; for viability, T/C: stronger effect = lower value; active = viability on the fitted dose curve at most 10% of control; inactive = the rest
In short: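 PDC + HUVEC + MSC complex spheroids; POLQ inhibitors ± partner drugs; top conc. at/near clinical Cmax, else 10 microM (SN-38 1 microM), half-log dilutions; 37 degrees C, 5% CO2.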

[1] = second compound 0.0316 µM, first compound 0.0316 µM
[2] = second compound 0.0316 µM, first compound 0.1 µM
[3] = second compound 0.0316 µM, first compound 0.316 µM
[4] = second compound 0.0316 µM, first compound 1 µM
[5] = second compound 0.0316 µM, first compound 3.16 µM
[6] = second compound 0.0316 µM, first compound 10 µM
[7] = second compound 0.1 µM, first compound 0.0316 µM
[8] = second compound 0.1 µM, first compound 0.1 µM
[9] = second compound 0.1 µM, first compound 0.316 µM
[10] = second compound 0.1 µM, first compound 1 µM
[11] = second compound 0.1 µM, first compound 3.16 µM
[12] = second compound 0.1 µM, first compound 10 µM
[13] = second compound 0.316 µM, first compound 0.0316 µM
[14] = second compound 0.316 µM, first compound 0.1 µM
[15] = second compound 0.316 µM, first compound 0.316 µM
[16] = second compound 0.316 µM, first compound 1 µM
[17] = second compound 0.316 µM, first compound 3.16 µM
[18] = second compound 0.316 µM, first compound 10 µM
[19] = second compound 1 µM, first compound 0.0316 µM
[20] = second compound 1 µM, first compound 0.1 µM
[21] = second compound 1 µM, first compound 0.316 µM
[22] = second compound 1 µM, first compound 1 µM
[23] = second compound 1 µM, first compound 3.16 µM
[24] = second compound 1 µM, first compound 10 µM
[25] = second compound 3.16 µM, first compound 0.0316 µM
[26] = second compound 3.16 µM, first compound 0.1 µM
[27] = second compound 3.16 µM, first compound 0.316 µM
[28] = second compound 3.16 µM, first compound 1 µM
[29] = second compound 3.16 µM, first compound 3.16 µM
[30] = second compound 3.16 µM, first compound 10 µM
[31] = second compound 10 µM, first compound 0.0316 µM
[32] = second compound 10 µM, first compound 0.1 µM
[33] = second compound 10 µM, first compound 0.316 µM
[34] = second compound 10 µM, first compound 1 µM
[35] = second compound 10 µM, first compound 3.16 µM
[36] = second compound 10 µM, first compound 10 µM
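Also: spheroids exposed to compounds for seven days.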
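For viability, T/C in this document: 100% = DMSO vehicle control viability.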

CCc1cc2c(N3CCc4c(cc(Cn5ccnc5)cc4-c4cn(C)nc4C(F)(F)F)C3=O)ccnc2c(OC)n1 + Cc1cccc(N(C)C(=O)C2C(O)CCN2c2nc(C)cc(C(F)(F)F)c2C#N)c1
8.88 µM: IC50 (second compound 0.316 µM)
7.87 µM: IC50 (second compound 1 µM)
9.01 µM: IC50 (second compound 0.0316 µM)
5.92 µM: IC50 (second compound 10 µM)
8.27 µM: IC50 (second compound 3.16 µM)
inactive: viability, T/C [1] 90.5% | viability, T/C [2] 92% | viability, T/C [3] 93.5% | viability, T/C [4] 102% | viability, T/C [5] 67.8% | viability, T/C [6] 48.2% | viability, T/C [7] 117% | viability, T/C [8] 78.8% | viability, T/C [9] 97.8% | viability, T/C [10] 90.8% | viability, T/C [11] 77.8% | viability, T/C [12] 49.8% | viability, T/C [13] 107% | viability, T/C [14] 114% | viability, T/C [15] 85.2% | viability, T/C [16] 78.6% | viability, T/C [17] 66.5% | viability, T/C [18] 47.1% | viability, T/C [19] 107% | viability, T/C [20] 98.2% | viability, T/C [21] 91.5% | viability, T/C [22] 105% | viability, T/C [23] 71% | viability, T/C [24] 44.4% | viability, T/C [25] 90.1% | viability, T/C [26] 91.4% | viability, T/C [27] 91.6% | viability, T/C [28] 81.7% | viability, T/C [29] 66.6% | viability, T/C [30] 46.7% | viability, T/C [31] 92.5% | viability, T/C [32] 82.5% | viability, T/C [33] 74.1% | viability, T/C [34] 69.6% | viability, T/C [35] 61.2% | viability, T/C [36] 40.7%
> 10 µM: IC50 (second compound 0.1 µM)

COc1cc2cc(C(=O)CCC(=O)O)sc2cc1OC + Cc1cccc(N(C)C(=O)C2C(O)CCN2c2nc(C)cc(C(F)(F)F)c2C#N)c1
> 10 µM: IC50 (second compound 0.0316 µM) | IC50 (second compound 0.1 µM) | IC50 (second compound 0.316 µM) | IC50 (second compound 1 µM) | IC50 (second compound 3.16 µM) | IC50 (second compound 10 µM)
inactive: viability, T/C [1] 95.5% | viability, T/C [2] 109% | viability, T/C [3] 94.2% | viability, T/C [4] 91.3% | viability, T/C [5] 103% | viability, T/C [6] 93.5% | viability, T/C [7] 102% | viability, T/C [8] 100% | viability, T/C [9] 109% | viability, T/C [10] 97.8% | viability, T/C [11] 97.5% | viability, T/C [12] 105% | viability, T/C [13] 95.9% | viability, T/C [14] 98.7% | viability, T/C [15] 93.2% | viability, T/C [16] 94% | viability, T/C [17] 96.1% | viability, T/C [18] 99% | viability, T/C [19] 94.1% | viability, T/C [20] 80.5% | viability, T/C [21] 93.6% | viability, T/C [22] 96.6% | viability, T/C [23] 112% | viability, T/C [24] 92.7% | viability, T/C [25] 100% | viability, T/C [26] 107% | viability, T/C [27] 84.8% | viability, T/C [28] 88.6% | viability, T/C [29] 92.5% | viability, T/C [30] 86.9% | viability, T/C [31] 101% | viability, T/C [32] 96.2% | viability, T/C [33] 92.3% | viability, T/C [34] 88.7% | viability, T/C [35] 88.8% | viability, T/C [36] 103%

COc1cccc2c1C(=O)c1c(O)c3c(c(O)c1C2=O)CC(O)(C(=O)CO)CC3OC1CC(N)C(O)C(C)O1 (stereo unspecified) + Nc1ccc(C#CCN(C(=O)Cc2ncc(C(F)(F)F)cc2C(F)(F)F)c2ccc(F)cc2)nn1
0.134 µM: IC50 (second compound 0.0316 µM)
0.0806 µM: IC50 (second compound 1 µM)
0.0688 µM: IC50 (second compound 0.316 µM)
inactive: viability, T/C [1] 67.5% | viability, T/C [2] 57.8% | viability, T/C [3] 26.7% | viability, T/C [7] 80.5% | viability, T/C [8] 48.3% | viability, T/C [9] 29.4% | viability, T/C [13] 67.8% | viability, T/C [14] 40% | viability, T/C [15] 25% | viability, T/C [16] 9.55% | viability, T/C [19] 83.7% | viability, T/C [20] 36.7% | viability, T/C [21] 29.5% | viability, T/C [25] 64.5% | viability, T/C [26] 34.2% | viability, T/C [27] 24.8% | viability, T/C [31] 63.2% | viability, T/C [32] 38.7% | viability, T/C [33] 25.3%
0.103 µM: IC50 (second compound 0.1 µM)
0.0621 µM: IC50 (second compound 10 µM)
0.0574 µM: IC50 (second compound 3.16 µM)
active: viability, T/C [4] 5.37% | viability, T/C [5] 0.23% | viability, T/C [6] 0.7% | viability, T/C [10] 5.02% | viability, T/C [11] 0.21% | viability, T/C [12] 0.47% | viability, T/C [17] 0.15% | viability, T/C [18] 0.48% | viability, T/C [22] 5.88% | viability, T/C [23] 0.44% | viability, T/C [24] 0.58% | viability, T/C [28] 7.19% | viability, T/C [29] 0.42% | viability, T/C [30] 0.9% | viability, T/C [34] 5.04% | viability, T/C [35] 0.39% | viability, T/C [36] 1.33%
